Tests used:
Assay type in all cases: cell-based
[1] = system: OPM and KMS11 multiple myeloma cell lines; experiment: Live cell count (Yo-pro-1 iodide/PI negative) in MM cell lines stably expressing NF-κB2 constructs, treated with bortezomib; details: titrating doses, 24 hours; live cells
Experimental: A) Two multiple myeloma cell lines, OPM and KMS11, stably expressing the full length NF-κB2 (p100), NF-κB2-ankyrin domains, NF-κB2-death domain were generated using a pLenti6.2/V5-DEST lentivirus. Cells were then treated at titrating doses of bortezomib. After 24 hours the cells were harvested and stained with Yo-pro-1 iodide and propidium Iodide (PI, both from Invitrogen, Grand Island, N.Y.). Live cells were measured using a ImageXpress 5000A Automated Acquisition and Analysis System (Molecular Devices, Sunnyvale, Calif.), quantitating for Yo-pro-1 iodide and PI negative cells. B) OPM1 and RPMI cells stably expressing NF-κB2 (p100), NF-κB2-ankyrin domains or control vector (LacZ) were treated with 10 nM of bortezomib for 24 hours. Cells were harvested and Western blot was performed to assay for caspase 9, cleaved caspase 9 and 3 and actin.
For apoptosis studies, 10^4 cells were treated with titrating doses of doxorubicin (doses: […], Sigma) or rituximab (titrating doses: 1.5, 2.5, 5, 10 and 20 μg/mL, Biogen Idec Inc). Twenty four hours later cells were stained with Yo-pro-1 and Propidium Iodide (Invitrogen). Live cells were measured using a ImageXpress 5000A Automated Acquisition and Analysis System (Molecular Devices, Sunnyvale, Calif.), quantitating for Yo-pro-1 or PI negative cells.
Sequences of NF-κB2-shRNA are known. […]

KMS11 = experiment: Bortezomib sensitivity of MM cell line KMS11
[2] = system: Daudi and Raji lymphoma cell lines; experiment: Apoptosis by flow cytometry (Annexin V) in lymphoma cell lines expressing p100 siRNA, treated with bortezomib
Experimental: (A) Two lymphoma cell lines, Daudi and Raji, expressing a p100 or a p105 siRNA were treated with titrating doses of bortezomib for 24 hours. […] Expression of p100 siRNA in two lymphoma cell lines, Daudi and Raji, reduce the protein levels of cleaved caspase 3 and 9. Western blot of Daudi and Raji cell lines expression p100 siRNA or luciferase were performed after 24 hours of treatment with titrating does of bortezomib.
Sequences of NF-κB2-shRNA are known. The sense shRNA oligonucleotide probes were as follows: p100, […] (SEQ ID NO: 12). Luciferase (Luc) shRNA plasmid was provided by S. Stewart. Short interfering hairpin RNA were expressed under U6 human promoter and were generated using PLKopuro.1. NF-κB2, NF-κB2-ankirin repeats region, NF-κB2-death domain and LcZ (control) were expressed under a CMV promoter and generated using a pLenti6/V5-DEST (Invitrogen Life Technologies). Recombinant lentiviruses were generated in 293T cells, for infection of all MM cell lines. Stable cell lines expressing shRNAs or the protein of interest were obtained after selecting cells with 2 μg/mL puromycin or 10 μg/mL, respectively. Cells were used for experiments two weeks after infection.

RPMI = experiment: Bortezomib sensitivity of MM cell line RPMI
NF-κB = experiment: NF-κB-luciferase reporter assay; details: Daudi and SC lymphoma cell lines; titrating doses, 24 hours
Experimental: Daudi and SC cell lines were transfected with a NF-κB-luciferase reporter construct (1 μg of DNA). Twenty four hours post-transfection, cells were treated with titrating doses of bortezomib. After 24 hours of treatment, cells were harvested and lysed with RIPA buffer. Twenty microliters of the lysate were mixed with Luciferase assay substrate (Promega, Madison, Wis.) followed by Stop & Glo reagent. Luciferase activity was then measured in a luminometer.

## CC(C)C[C@H](NC(=O)[C@H](Cc1ccccc1)NC(=O)c1cnccn1)B(O)O [bortezomib]
[1]
  sensitivity to bortezomib on expression of p100 (NF-κB2), NF-κB2-ankyrin domains and NF-κB2-death domain: restores sensitivity
KMS11
  bortezomib sensitivity of cell line: resistant
[2]
  bortezomib sensitivity of lymphoma cells: sensitive
[2]; titrating doses, 24 hours, Annexin V
  bortezomib-induced apoptosis on p100 siRNA expression: reduces
RPMI
  bortezomib sensitivity of cell line: resistant
NF-κB
  effect on NF-kB luciferase reporter activity: NF-kB inhibitory effects

— patent US9856534B2, “Selecting use of proteasome inhibitors based on NF-κB2 sequence” (Emory University, priority 2011, dated 2018)
